Test results: patent US20140377216A1, “ANTICANCER FUSION PROTEIN” (ADAMED SP. Z.O.O., priority 2011, published 2014)

Tested on: pancreatic carcinoma MIA PaCa-2
Assay: Pancreas cancer model, Experiment B: MIA PaCa-2 xenograft
Type: in vivo, Crl:SHO-PrkdcscidHrhr mice
Conditions: rhTRAIL 50 mg/kg i.v. six times every second day, 61th day
Procedure: Tumor size was measured using electronic calliper, tumor volume was calculated using the formula: (a^2×b)/2, where a=shorter diagonal of the tumor (mm) and b=longer diagonal of the tumor (mm). Inhibition of tumor growth was calculated using the formula:
TGI[%](Tumor growth inhibition)=(WT/WC)×100−100%
wherein WT is the average tumor volume in the treatment group, and WC is the average tumor volume in the control group.
On day 0 Crl:SHO-Prkdc^scidHr^hr mice were grafted subcutaneously (s.c.) in the right flank region with 5×10^6 of MIA PaCa-2 cells suspended in 0.1 ml of 3:1 mixture HBSS buffer:Matrigel using syringe with a 0.5×25 mm needle (Bogmark). When tumors reached the size of 60-398 mm^3 (day 20), mice were randomized to obtain the average size of tumors in the group of ˜170 mm^3 and assigned to treatment groups. The treatment groups were administered with the preparations of fusion protein of the invention of Ex. 16^b (50 mg/kg) and rhTRAIL114-281 (50 mg/kg) as a comparison and reference compound gemcytabine (Gemzar, Eli Lilly) (50 mg/kg). The preparations were administered intravenously (i.v.) six times every second day, gemcytabine was applied intraperitoneally (i.p.) in the same schedule. The control group received formulation buffer.
When a therapeutic group reached the average tumor size of ˜1000 mm^3, mice were sacrificed by the cervical dislocation.

## rhTRAIL114-281: recombinant human soluble TRAIL, amino acids 114-281 of hTRAIL, used as comparative reference
  TGI (tumor growth inhibition) relative to the control: 68%
